Measurements as given in patent publication US6699859B1 (dated 2004).

Structure (SMILES) | melting point
Cn1ncnc1COc1nn2c(-c3ccccc3)nnc2c(Cl)c1N1CCCC1 | 174.5 to 176 °C
Cn1cnc(COc2nn3c(-c4cccs4)nnc3c(Cl)c2N2CCOCC2)n1 | 221.9 to 222.8 °C
